Assay results: patent US20100255580A1, “Differentiation of Human Embryonic Stem Cells” (LIFESCCAN, INC., priority 2007, published 2010)

Test system: human embryonic stem cells (H9, H7) on MATRIGEL
Assay: Real-time PCR of definitive endoderm markers, DE protocol on […] or fibronectin (feeder-free)
Format: cell-based
Settings: for expression of definitive endoderm markers: with 50 ng/ml of AA, 20 ng/ml Wnt-3A or 100 nM GSK-3B inhibitor IX
Method: Real-time PCR amplification and quantitative analysis.
Final data were expressed relative to a calibrator sample.
Differentiation of embryonic stem cells to definitive endoderm was carried out as previously described in Nature Biotechnology 23, 1534-1541 (December 2005). […] In all subsequent examples unless otherwise noted, this treatment regimen will be referred to as the definite endoderm (DE) protocol. In parallel, H9, H7, or H1 cells cultured on MEF feeders were also exposed to the same DE protocol outlined above.
At day 5, the cultures were analyzed by FACS for CXCR4, E-cadherin, CD9, CD99, and N-cadherin (CD56) expression and by real time PCR for SOX-17, SOX-7, Alpha-fetal protein (AFP), CXCR4, Brychyury (Bry), gooscecoid (GSC), HNF-3 beta, and GATA4. AFP and SOX-7 are regarded as visceral endoderm markers while GATA4, HNF-3beta and SOX-17 represent definite endoderm markers and GSC, Bry, and CXCR4 represent markers of primitive streak.
In some of the cultures 20 ng/ml Wnt-3a (Catalog #1324-WN-002, R&D Systems, MN), 20 ng/ml Wnt-5a (Catalog #654-WN-010, R&D Systems, MN), 25 ng/ml Wnt-7a (Catalog #3008-WN-025, R&D Systems, MN), or 25 ng/ml Wnt-5b (Catalog #3006-WN-025, R&D Systems, MN) was added throughout the five day treatment. FIG. 24 depicts phase contrast images of H9P46 definitive endoderm culture in the presence of high concentration of (a) AA or (b) AA+20 ng/ml Wnt-3a. FIG. 25 depicts the expression of CXCR4 by FACS at day 5 for H7P44, and H9P46 lines cultured on […] (1:30 dilution) and exposed to the DE protocol+Wnt-3a (FIG. 25, panels b and d) and −Wnt-3a (FIG. 25, panels a and c).
Control cultures were not treated with Wnt-3a. FIG. 27, panel a depicts the expression of CXCR4 by FACS at day 5 in the absence of Wnt-3a, b) 10 ng/ml Wnt-3a, c) 20 ng/ml Wnt-3a and d) 50 ng/ml Wnt-3a. In the absence of Wnt-3a the expression of CXCR4 was very low. […] Real-time PCR results (FIG. 28, panel a) also confirm this finding.
In a separate study, H9 p52 cells were plated on 1:30 low growth factor […]™. For the first 2 days of the DE protocol a range of Wnt3A doses was used: 10 ng/ml, 5 ng/ml and 1 ng/ml. […] The number of cells at the end of the experiment is noted in FIG. 28, panel c.
In order to confirm that the effect of Wnt-3a was through the Wnt pathway, a GSK-3 inhibitor was used to activate the downstream targets of Wnt, such as beta catenin. […] FIG. 29, panel a depicts the expression of CXCR4 by FACS at day 5 in the absence of Wnt-3a or GSK-3B inhibitor, b) +20 ng/ml Wnt-3a, c) +1000 nM GSK-3B inhibitor IX, d) +500 nM GSK-3B inhibitor IX, e) +100 nM GSK-3B inhibitor IX, f) +10 nM GSK-3B inhibitor IX, g) +100 nM GSK-3B inhibitor IX for days 1-2, and h) +10 nM GSK-3B inhibitor IX for days 1-2.
FIG. 31 panels a-d is for H9P49 cells and panels e-f is for H1P46 cells.
Results are expressed as fold increase over untreated cells. […] Results are expressed as fold increase over untreated cells.
H9P55 cells were grown and differentiated on human fibronectin or regular growth factor […]™ (BD Biosciences). lml of DMEM/F12 (Invitrogen/GIBCO) containing 1 ug/ml of human fibronectin (R&D systems, MN) was added to each well of 6 well tissue culture treated dish. Alternatively, regular growth factor […]™ was diluted 1:10 in DMEM/F12 and 1 ml of diluted […]™ was added to each well of 6 well tissue culture treated dish. Cells were passed with collagenase. […] Real-time PCR results (FIG. 39) confirm that formation of definitive endoderm was equivalent on fibronectin and […]™ coated plates.
To determine if the addition of Wnt-3a was causing the increase in differentiation, an inhibitor of Wnt-3 signaling was added to the cultures. […] H9 cells were cultured on plates coated with Growth Factor Reduced […] at a 1:30 dilution. The plates were coated with […] for 1 hr at room temperature. […]

Compound	expression of definitive endoderm markers (H9P49)	outcome of lower doses of activin A (H9P49, with Wnt-3a or GSK-3B inhibitor IX)	definitive endoderm markers (real-time PCR) (H7 and H9, low serum+AA+/−Wnt ligands, 5 days)	Wnt3a dose sufficient to reach optimal cell expansion and definitive endoderm differentiation (H9 p52, for 2 days) [ng/mL]
O=C1Nc2cc(Br)ccc2/C1=C1/Nc2ccccc2/C1=N\O [GSK-3B inhibitor IX, reference compound]	robust expression	–	–	–
Activin A: a member of the TGFβ superfamily; R&D Systems; Group 2 = Activin A (100 ng/ml)	–	formation of extraembryonic endoderm	–	–
Wnt-3a	robust expression	–	significant upregulation	10
